Square brackets hold non-standard residues; d marks the D form. Primed or numbered codes have the meaning given here. Ends that are not written are not given here. CPQ2″ = quencher on the Lys side chain; FAM = fluorescent reporter; CPQ2(4) = quencher on Lys; PEG2″ = PEG2 spacer; CPQ2 = quencher
How the values were obtained:
[1] = system: cathepsin and/or MMP protease activities; assay: Ex vivo probe cleavage in plasma: healthy, NASH regression, NASH progression; format: biochemical, mice; conditions: K2EDTA plasma at 20 weeks
From the text: Plasma samples were collected from all animals at 20 weeks.
The probes showing the most differentiation in NASH were linked to cathepsin and/or MMP protease activities.

caspase activity = assay: Ex vivo probe cleavage in plasma of Jo2 fulminant hepatitis model; format: biochemical, mouse; conditions: plasma 3 hours after Jo2 injection
Description: Fulminant hepatitis is induced after injection intraperitoneal of monoclonal antibody anti-CD95 (Jo2, BD biosciences, 4 ug/animal), and mouse plasma samples were collected 3 hours after Jo2 injection.
The comparison with mass spectrometry data also aligns and confirms high concordance with the ex vivo approach, which is reassuring to confirm the existence of a biologically relevant signal.

COVID-related proteases [2] = assay: Ex vivo probe cleavage in COVID positive and negative swab samples; format: biochemical
Granzyme B = biological target: T1, Granzyme B (Homo sapiens, UniProt P10144); assay: Inhibition experiments on Probe #647 signal in swabs (Granzyme B, caspases); format: biochemical; conditions: healthy vs COVID samples
T1 construct: from tissue; host or cells: swab samples
T1 sequence (P10144 21-247): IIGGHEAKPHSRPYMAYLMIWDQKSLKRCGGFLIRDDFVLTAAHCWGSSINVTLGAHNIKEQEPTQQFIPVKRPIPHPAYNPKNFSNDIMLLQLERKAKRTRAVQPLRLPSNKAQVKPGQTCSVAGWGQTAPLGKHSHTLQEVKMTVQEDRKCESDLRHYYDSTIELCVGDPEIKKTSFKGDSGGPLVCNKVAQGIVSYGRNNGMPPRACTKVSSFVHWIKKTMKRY

COVID-related proteases [3] = assay: Ex vivo probe cleavage in K2EDTA and Lithium Heparin plasma, COVID vs healthy; format: biochemical; conditions: K2EDTA and LiHeparin plasma cohorts
[4] = system: carboxylesterase 1, phospholipase A2 and lipoprotein lipase; assay: Resorufin oleate substrate with recombinant enzymes spiked in human plasma; format: biochemical
[5] = system: proteases cleaving Probe #102 in plasma (cathepsin L); assay: Inhibitor profiling of Probe #102 cleavage in NASH and healthy plasma; format: biochemical, mice; conditions: for effect of inhibitor on Probe #102 signal: NASH or healthy samples
Description: For this experiment, all plasma samples were prepared individually and diluted 1/10e in PBS with inhibitor added directly to the samples. Inhibitor was prepared at 15× concentration to final. Substrates were diluted in DI water at 18 uM, such that the final concentration on the plate would be 6 uM. All samples were prepared such that their last dilution on the plate would not affect the desired final concentration. 10 ul of each individual sample was pipetted into their corresponding wells, and the plate was then spun down in the centrifuge at 1500 RPM for 30 seconds to coat the bottom of each well with the sample. 5 ul of the 18 uM substrate solution was pipetted into each well being used on a 384 well plate, and then the plate was spun down in the centrifuge at 1500 rpm for 30 seconds. The plate was placed immediately in the plate reader at 37° C. for a 30-minute-long fluorescence kinetic read at 485/535 extended gain.
To assess the proteolytic cleavage pattern of Probe #102, samples were tested using a pool of broad inhibitors for serine, cysteine, threonine, MMP and aspartic protease family members (broad inhibitor) to assess general protease activity, AEBSF for serine proteases, E64 for cysteine proteases, CTSi for broad cathepsin inhibition of cathepsins L, S, K and B, or specific inhibitors for cathepsin K (L00625), for cathepsin L (SID) or cathepsin B (CA074).

furin = furin (Homo sapiens, UniProt P09958); conditions: solid-state fluorescence of precipitates after reaction of HPQF with furin; cited from earlier work
Chain of furin (P09958 108-794, species assumed): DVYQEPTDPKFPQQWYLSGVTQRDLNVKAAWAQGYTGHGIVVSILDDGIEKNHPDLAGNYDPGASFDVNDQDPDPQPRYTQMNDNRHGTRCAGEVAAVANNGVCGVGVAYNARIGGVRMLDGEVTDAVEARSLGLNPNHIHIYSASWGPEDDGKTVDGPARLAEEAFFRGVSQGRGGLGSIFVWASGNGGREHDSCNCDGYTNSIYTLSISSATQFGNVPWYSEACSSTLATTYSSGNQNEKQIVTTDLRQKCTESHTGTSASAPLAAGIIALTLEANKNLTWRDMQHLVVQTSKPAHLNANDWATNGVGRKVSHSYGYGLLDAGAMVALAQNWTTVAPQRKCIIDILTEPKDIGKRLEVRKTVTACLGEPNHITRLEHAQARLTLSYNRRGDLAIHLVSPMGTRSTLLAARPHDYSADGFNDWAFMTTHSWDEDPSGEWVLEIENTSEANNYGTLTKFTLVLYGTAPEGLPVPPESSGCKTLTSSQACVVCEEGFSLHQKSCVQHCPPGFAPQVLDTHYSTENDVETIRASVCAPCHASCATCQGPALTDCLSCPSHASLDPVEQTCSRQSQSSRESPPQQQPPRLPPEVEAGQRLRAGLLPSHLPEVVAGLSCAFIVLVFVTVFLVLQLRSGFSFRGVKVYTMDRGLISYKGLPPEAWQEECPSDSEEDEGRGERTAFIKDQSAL

For “Probe #520: probe of Table 1 (GKPISLISSGK; not fully specified; 5FAM, CPQ2 quencher, PEG2-GC; MOD_RES (11)..(11) Lys modified with a CPQ2 quencher)”, the “differentiation among healthy, regression and NASH samples” value (“differentiation among healthy” for short) [1] was “can differentiate”.

For “Probe #647: Caspase centric probe; signal measures Granzyme B activity (GAIEPDSGGK(CPQ2); also: 5FAM, position not given here, PEG2, position not given here, D-Lys-D-Lys-GC-NH2, position not given here)”, the “differentiation among healthy” value [1] was “can differentiate”, the “contrast in Jo2 hepatitis model” value (caspase activity) was “show contrast that is specific and sensitive to the Jo2 model” and the “active samples among COVID+” value (COVID-related proteases [2]; adjusted RFU across timepoints) was 7 samples. The “active samples among COVID−” value (COVID-related proteases [2]; adjusted RFU across timepoints) was 1 sample, the “differentiation between COVID+ and COVID− samples” value (COVID-related proteases [2]; swab samples in saline) was “key differentiator” and the “protease measured by probe signal” value (Granzyme B) was “measures the activity of protease Granzyme B”.

In the case of “Probe #462: MMP8 substrate (GKKAKRNALGK(CPQ2); also: FAM, position not given here, PEG2, position not given here)”, the “differential cleavage between COVID and healthy samples” value (COVID-related proteases [3]) is reported as “demonstrated contrast in both sets”.

With `CCCC(=O)O` [butyrate] the “suitability as substrate for enzyme detection” value [4] was “promising for detection of broad range of enzymes”.

For `NCCc1ccc(S(=O)(=O)F)cc1` [AEBSF], the “decrease of RFU signal in NASH samples” value ([5]; Probe #102 6 uM, NASH plasma diluted in PBS, 30-minute kinetic read at 37° C.) was 65% and the “decrease of RFU signal in healthy samples” value ([5]; Probe #102 6 uM, healthy plasma diluted in PBS, 30-minute kinetic read at 37° C.) was 60%.

In the case of `CN1CCN(c2nc(-c3ccc(C(=O)NC4(C(=O)NCC#N)CCCCC4)cc3)cs2)CC1` [Probe L006235], the “effect of inhibitor on Probe #102 signal” value [5] is reported as “did not significantly decrease signal”.

With `CCCNC(=O)[C@H]1O[C@@H]1C(=O)N[C@H](C(=O)N1CCC[C@H]1C(=O)O)[C@@H](C)CC` [CA074] the “effect of inhibitor on Probe #102 signal” value [5] was “did not significantly decrease signal”.

In the case of Resorufin oleate, the “suitability as substrate for enzyme detection” value [4] is reported as “promising for detection of broad range of enzymes”.

In the case of “Probe #96: probe of Table 1 ({FAM}-GRPLALWESQGK(CPQ2(4))[PEG2″][dK]GC; not fully specified; printed as (FAM)-GRPLALWESQG-K(CPQ2)-PEG2-k-GC; also: FAM, place not given here, D-Lys-GC, place not given here)”, the “differentiation among healthy” value [1] is reported as “can differentiate”.

For `O=c1[nH]c(-c2cc(Cl)ccc2O)nc2ccc(Cl)cc12` [Cl-HPQ], the fluorescence enhancement (furin) is listed as “more than 60 fold”.

In the case of “Probe #18: Neutrophil elastase substrate (GAAPVGK(CPQ2); also: 5-FAM, position not given here, PEG2, position not given here)”, the “differential cleavage between COVID and healthy samples” value (COVID-related proteases [3]) is reported as “demonstrated contrast in both sets”.

In the case of “Probe #12: Caspase centric probe (GDEVDGK; not fully specified; 5-FAM, CPQ2 quencher, PEG2, D-Lys-D-Lys-GC; MOD_RES (7)..(7) Lys modified with a CPQ2 quencher)”, the “contrast in Jo2 hepatitis model” value (caspase activity) is reported as “show contrast that is specific and sensitive to the Jo2 model”.

For “Probe #428: probe of Table 1 ({FAM}-GDRRKKLTQGK(CPQ2(4))[PEG2″][dK][dK]GC; not fully specified; printed as (FAM)-GDRRKKLTQG-K(CPQ2)-(PEG2)-DLys-DLys-GC; also: FAM, place not given here, D-Lys-D-Lys-GC, place not given here)”, the “differentiation among healthy” value [1] was “can differentiate”.

With `CC(C)C[C@H](NC(=O)[C@H]1O[C@@H]1C(=O)O)C(=O)NCCCCN=C(N)N` [Probe E64] the “effect of inhibitor on Probe #102 signal” value [5] was “decreased NASH signal significantly”.

In the case of “Probe #8: Caspase centric probe (GVDVADGK; not fully specified; 5-FAM, CPQ2 quencher, PEG2, D-Lys-D-Lys-GC; MOD_RES (8)..(8) Lys modified with a CPQ2 quencher)”, the “contrast in Jo2 hepatitis model” value (caspase activity) is reported as “show contrast that is specific and sensitive to the Jo2 model”.

With “Probe #492: probe of Table 1; differentiates NASH in mouse plasma ({FAM}-GQRANSIRVTWGK(CPQ2(4))[PEG2″][dK][dK]GC; not fully specified; printed as (FAM)-GQRANSIRVTWG-K(CPQ2)-(PEG2)-DLys-DLys-GC; also: FAM, place not given here, D-Lys-D-Lys-GC, place not given here)” the “differentiation among healthy” value [1] was “can differentiate”.

For “Probe #102: a CTSL sensing probe; fluorescent reporter and quencher ({FAM}-GKPILFFRLKGK(CPQ2″)[PEG2″][dK][dK]GC; also: fluorescent reporter and quencher, places not given here)”, the “protease whose activity the probe responds to” value ([5]; individual cathepsin inhibitors, FIG. 30D-F) was “specifically responds to the activity of cathepsin L (CTSL)” and the “differentiation among healthy” value [1] was “can differentiate”.

In the case of “Probe #84: Furin substrate (GRVKRGLAGK(CPQ2); also: 5-FAM, position not given here, PEG2, position not given here)”, the “differential cleavage between COVID and healthy samples” value (COVID-related proteases [3]) is reported as “demonstrated contrast in both sets”.

In the case of “Probe #409: the SARS CoV2 coronavirus substrate (GTSAVLQSGFRKGK(CPQ2); also: 5-FAM, position not given here, PEG2, position not given here)”, the “differential cleavage between COVID and healthy samples” value (COVID-related proteases [3]) is reported as “modest contrast in the K2 EDTA samples”.

From patent US12492422B2, “Ex vivo protease activity detection for disease detection/diagnostic, staging, monitoring and treatment” (Sunbird Bio, Inc., priority 2020, dated 2025)
